Measurements: patent US20100055047A1, “Methods for treating bronchial premalignancy and lung cancer” (priority 2008, published 2010)
In brackets after ≈: the same amount, converted by molar mass.

Key:
[1] = Aerodynamic size of aerosol droplets (7-Stage Cascade Impactor); format: physicochemical; details: PARI compressor, LC star nebulizer, airflow 5 L/min
Description: Aerosol equipment. A PARI personal compressor and a LC star nebulizer were used in this study. The pressure should be 20-28 psi, and the aerosol generated rate should be 0.3±0.03 ml/min. Other clinically used aerosol equipment with similar functions can be used as well.
The aerodynamic diameters of aerosol droplets of 5-azacytidine were determined with extrusion-precipitation method using a 7-Stage Cascade Impactor (In-Tox Products, Albuquerque, N. Mex.) linked to PARI's personal compressor and LC star nebulizer system. 5-azacytidine solution (4 ml) was aerosolized under the airflow rate of 5 L/min. The condensed aerosol samples were collected at 3 different periods, from 1 to 1.5 min, from 3 to 3.5 min, and from 5 to 5.5 min. Aerodynamic size and fraction of aerosol with a particular size range were measured and calculated as per manufacturer's protocol. The data was mean±SD of the aerodynamic size based on weight (bars) and cumulative weight (line) from 3 independent experiments.

[2] = tested on: Human NSCLC cell lines H358, H460, and A549; assay: Cytotoxicity by MTT assay; format: cell-based; details: 72 h, 3 days exposure, range over the cell lines, read-out: IC50 (concentration inhibiting 50 percent cell growth)
Description: Cytotoxicity of 5-azacytidine. Human NSCLC cell lines H358, H460, and A549 were exposed to different concentrations of 5-azacytidine in a 96-well plate for 3 days. The cytotoxicity was measured by MTT assay.

[3] = tested on: DAPK and E-cadherin in human NSCLC cell lines A549 and H460; assay: Demethylation function: re-expression of DAPK and E-cadherin by Western blotting; format: cell-based; details: 24 hours exposure
Source text: DAPK and E-cadherin are important tumor suppressor proteins.

[4] = in vivo; details: ICR, mouse, in vivo, iv
Description: (§1) Acute toxicity. The dose limiting toxicity of intravenous 5-azacytidine or decitabine is severe myelosuppression. In order to test whether aerosol or intratracheal injection can reduce the myelotoxicity or alter the toxicity profile, a dose of 90 mg/kg, the maximum tolerated dose (MTD) for intravenous injection (IV) of 5-azacytidine, was used to treat ICR mice by intravenous injection to mimic current therapy. The same dose of intratracheal injection (IT) of 5-azacytidine was used to mimic aerosol administration (35). Complete blood count (CBC), creatinine, liver function tests, and pathological evaluation of H/E staining of lungs, kidney and liver were performed to assess for toxicity differences.

[5] = tested on: ICR mice; assay: in vivo
Description: as §1

[6] = Dose finding: lethal toxicity and MTD; format: in vivo, mice; details: female, nude, mouse, in vivo, maximum dose causing 0% death, read-out: MTD (total dose)
Description: (§2) Dose finding. In order to use optimal therapeutic dose, the lethal toxicity and MTD for intratracheal injection (mimicking aerosol, IT) and intravenous injection (mimicking current most frequently used intravenous infusion and injection, IV) routes were determined in mice before the therapeutic experiment. Briefly, the nude mice (female, 6 weeks age) were inoculated with 4×10^6H460 cells intratracheally. One week later, they were randomly divided into several groups with 5 mice in each. Different groups of mice received different doses of IT 5Aza (range from 2.5 to 50 mg/kg qod×3) or IV 5Aza (range from 6.25 to 50 mg/k daily×6). The percentage of moribund mice in each group versus dose was used to simulate the dose response curves and determined the MTD. The maximum dose caused 0% death was defined as MTD. Under these experimental conditions, the MTD for both IT and IV 5Aza was 37.5 mg/kg or 112.5 mg/m^2 (total dose, FIG. 5-1). In considering the cytotoxicity results and the aerosol efficiency, 20% of IT MTD and 100% of IV MTD were used for the therapeutic studies.

[7] = tested on: nude mice inoculated with H460 cells intratracheally; assay: Dose finding: lethal toxicity and MTD; format: in vivo; details: maximum dose causing 0% death
Description: as §2

[8] = tested on: orthotopic human NSCLC xenograft H460 in nude mice; assay: Antitumor efficacy, orthotopic H460 NSCLC xenograft; format: in vivo
Description: (§3) Antitumor efficacy. In order to evaluate the antitumor efficacy of the airway administered demethylating agent and to compare the result with systemic treatment, orthotopic human NSCLC xenograft models in nude mice were developed by inoculating the tumor cells in the respiratory airway (35,36). In the first experiment, the mice bearing lung tumors were randomly divided into 3 groups with 5 mice in each. Ten days after the H460 tumor inoculation, one group of mice were treated with intratracheal injection of 2.5 mg/kg of 5-azacytidine every other day for 3 injections, another group of mice were treated with IV injections of 6.25 mg/kg every day for 6 injections via tail vein, and the last group of mice remained untreated. […] The median survival is 50, 80 and >109 days for no treatment, IV 5Aza, and IT 5Aza group, respectively (FIG. 5-2). The similar results were obtained from another experiment using an orthotopic H358 NSCLC model. In the second experiment, the treatment schedules and doses were the same as the first experiment. The median survival is 60, 73, and 98 days for no treatment, IV 5Aza, and IT 5Aza group, respectively (FIG. 5-3). In both experiments, the differences between IT 5Aza and IV 5Aza are statistically significant (p<0.01).

[9] = tested on: orthotopic H358 NSCLC model in nude mice; assay: Antitumor efficacy, orthotopic H358 NSCLC xenograft; format: in vivo
Description: as §3

[10] = tested on: lung cancer patients; details: intravenous or subcutaneous, not aerosol; one of the largest studies; transient; cited from earlier work
[11] = IT 2.5 mg/kg every other day for 3 injections
[12] = IV 6.25 mg/kg every day for 6 injections

## Nc1ncn([C@@H]2O[C@H](CO)[C@@H](O)[C@H]2O)c(=O)n1 [5-azacytidine]
[1]
  fraction of aerosol droplets measured between 0.2~3 μm in diameter: about 97 % (weight)
[2]
  IC50: 4 to 14 µg/mL (≈ 16.4 to 57.3 µM)
[3]
  expressions of DAPK and E-cadherin: significantly enhanced
[4]
  MTD: 90 mg/kg
[5]; ICR, mouse, in vivo, iv, 90 mg/kg, 4 day
  highest white blood cell (WBC) reduction: 69±8.3%
[5]; IT, 90 mg/kg
  lung toxicity: reversible lung toxicity that peaked on day 7, reduced on day 14
[5]; IT, 90 mg/kg, day 7
  highest white blood cell (WBC) reduction: 11±1.0%
[5]; IT, Day 7
  Toxicity grade of lungs: 1-2
[5]; mouse, in vivo, 90 mg/kg
  hepatic or renal toxicities: no hepatic or renal toxicities
[5]; mouse, in vivo, iv, 90 mg/kg
  hepatic or renal toxicities: no hepatic or renal toxicities
[6]; other: intratracheal injection, IT, qod×3
  MTD: 37.5 mg/kg
[6]; IV, daily×6
  MTD at 6 days: 37.5 mg/kg
[7]; IT, qod×3
  MTD (total dose): 112.5 mg/m^2
[7]; IV, daily×6
  MTD (total dose): 112.5 mg/m^2
[8]; [11]
  median survival: > 109 days
[8]; [12]
  median survival: 80 days
[9]; [11]
  median survival: 98 days
[9]; [12]
  median survival: 73 days
[10]
  partial remission in lung cancer patients: one of 24 lung cancer patients had a partial remission
